This note sets out measurements from ChEMBL document CHEMBL1139551, “2,3-Ethylene- and 2,3-trimethylene-bridged analogues of the group III metabotropic glutamate receptor ligand 2-amino-4-phosphonobutanoic acid” (Bioorg Med Chem Lett, 2005).

Test [1] has as its target T1, Metabotropic glutamate receptor 4 (Homo sapiens, UniProt Q14833). Nature of the test: Effective concentration which exhibit agonistic activity at metabotropic glutamate 4 receptor stably expressed in AV12 cells. It is filed as functional, cell-based.
Test [2] addresses T1, Metabotropic glutamate receptor 4. The test is described as follows: Agonistic activity towards group III Metabotropic glutamate receptor stably expressed in AV12 cells when tested up to 200 uM; NS means no significant activity. It is filed as functional, cell-based.

T1 sequence (Q14833 whole entry): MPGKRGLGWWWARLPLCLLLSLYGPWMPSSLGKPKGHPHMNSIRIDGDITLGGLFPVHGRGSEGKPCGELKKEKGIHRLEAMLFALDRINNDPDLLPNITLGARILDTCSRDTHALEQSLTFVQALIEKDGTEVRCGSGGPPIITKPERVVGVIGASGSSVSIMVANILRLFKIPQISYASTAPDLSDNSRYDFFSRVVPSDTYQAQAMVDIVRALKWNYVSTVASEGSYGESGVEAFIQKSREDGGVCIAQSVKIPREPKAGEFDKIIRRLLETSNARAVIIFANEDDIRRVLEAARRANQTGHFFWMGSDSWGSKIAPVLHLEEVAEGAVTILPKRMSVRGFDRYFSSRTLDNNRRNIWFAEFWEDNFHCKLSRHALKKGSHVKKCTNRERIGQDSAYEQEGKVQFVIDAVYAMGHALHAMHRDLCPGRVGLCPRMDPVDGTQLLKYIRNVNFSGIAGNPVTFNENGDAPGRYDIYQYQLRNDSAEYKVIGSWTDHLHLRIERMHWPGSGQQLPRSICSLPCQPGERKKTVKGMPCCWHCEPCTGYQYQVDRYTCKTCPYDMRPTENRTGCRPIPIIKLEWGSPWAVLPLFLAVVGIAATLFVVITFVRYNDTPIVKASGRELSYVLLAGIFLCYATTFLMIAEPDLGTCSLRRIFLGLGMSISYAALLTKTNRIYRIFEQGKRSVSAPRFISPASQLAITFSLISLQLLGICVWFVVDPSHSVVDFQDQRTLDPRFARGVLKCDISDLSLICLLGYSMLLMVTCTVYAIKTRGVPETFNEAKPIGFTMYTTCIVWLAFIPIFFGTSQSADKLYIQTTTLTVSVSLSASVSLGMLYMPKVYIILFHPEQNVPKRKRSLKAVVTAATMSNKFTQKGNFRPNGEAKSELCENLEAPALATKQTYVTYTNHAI

`NC1(C(=O)O)CC1CP(=O)(O)O` (stereo in doubt; 3) came in with a concentration for a half-maximal effect (EC50) in test [1] of 7.9 µM.
Still for that read-out and setting: for `NC1(C(=O)O)CC1CP(=O)(O)O` (stereo in doubt; 4) the value was 0.58 µM.
Take `NC1(C(=O)O)CCC1CP(=O)(O)O` (stereo in doubt; 5): the Activity entry in test [2] is “No significant activity”.
The same measure, in the same setting: for `NC1(C(=O)O)CCC1CP(=O)(O)O` (stereo in doubt; 6) the value was “No significant activity”; for `NC1(C(=O)O)CCCC1CP(=O)(O)O` (stereo in doubt; 7), “No significant activity”.
Still for that read-out and setting: for `NC1(C(=O)O)CCCC1CP(=O)(O)O` (stereo in doubt; 8) the value was “No significant activity”.

In general, EC50 refers to the concentration that produces a half-maximal response. A high value points to a need for much substance.
